Measurements published in US20240368181A1, “QUINOXALINE DERIVATIVES AND USES THEREOF” (Black Diamond Therapeutics, Inc., priority 2021, published 2024).

What was measured:
Assay type in all cases: cell-based
[1] = system: RT-112 (FGFR3-Tacc3 fusion) cells; experiment: Cell proliferation assay (CellTiterGlo), RT-112 cells; settings: Homo sapiens, RT-112, 72 h, RT112 cells, inhibition of cell growth, intracellular ATP (CellTiterGlo)
Source text: (§1) The following is a non-limiting example that describes a cell proliferation assay used to determine the biological activity of the compounds of the present disclosure. More specifically, the assay as used to assess the ability of the compounds to inhibit cell proliferation.
(§2) Briefly, SNU-16 (FGFR2-amplification) cells, were resuspended at 18,520c/ml mL in RPMI containing 10% Heat Inactivated FBS, 1% L-glutamine and dispensed in duplicate (463c/well) into 384 well plates. UM-UC-14 (FGFR3-S249C) cells were resuspended at 40.000c/ml mL in RPMI containing 10% Heat Inactivated FBS, 1% L-glutamine and dispensed in duplicate (1000c/well) into 384 well plates. DMS-114 (FGFR1 overexpression) cells and were resuspended at 40,000c/ml mL in RPMI containing 10% Heat Inactivated FBS, 1% L-glutamine and dispensed in duplicate (1000c/well) into 384 well plates. RT-112 (FGFR3-Tacc3 fusion) cells were resuspended at 40,000c/ml mL in RPMI containing 10% Heat Inactivated FBS, 1% L-glutamine and dispensed in duplicate (1000c/well) into 384 well plates. To determine the effect of the compounds of the present disclosure on cell proliferation, SNU-16, UM-UC-14, DMS-114 and RT112 cells were incubated for 72 hours in the presence of vehicle control (DMSO) or a compound of the present disclosure at varying concentrations. Inhibition of cell growth was subsequently determined by luminescent quantification (Envision by Perkin Elmer) of intracellular ATP content using CellTiterGlo (Promega), according to the protocol provided by the manufacturer. To determine the IC50 values, the vehicle-treated cells were normalized as viable cells and analyzed using the CDD Vault software (Collaborative Drug Discovery, Burlingame, CA).

[2] = system: UM-UC-14 (FGFR3-S249C) cells; experiment: Cell proliferation assay (CellTiterGlo), UM-UC-14 cells; settings: UMUC14, 72 h, inhibition of cell growth, intracellular ATP (CellTiterGlo)
Source text: as §1, §2

[3] = system: DMS-114 (FGFR1 overexpression) cells; experiment: Cell proliferation assay (CellTiterGlo), DMS-114 cells; settings: Homo sapiens, 72 hours, inhibition of cell growth, intracellular ATP (CellTiterGlo)
Source text: as §1, §2

[4] = system: SNU-16 (FGFR2-amplification) cells; experiment: Cell proliferation assay (CellTiterGlo), SNU-16 cells; settings: Homo sapiens, SNU-16, 72 h, inhibition of cell growth, intracellular ATP (CellTiterGlo)
Source text: as §1, §2

Row | SMILES | IC50 [1] [nM] | IC50 [2] [nM] | IC50 [3] [nM] | IC50 [4] [nM]
1 | Cc1nc2ccc(Oc3ccc4ncc(-c5cnn(CC6CC(C)N(C)C(C)C6)c5)nc4c3Cl)cc2[nH]1 (stereo not shown) [Compound 5] | 20 to 100 | 20 to 100 | ≥ 400 | 20 to 100
2 | CCC(=O)N1CCC(Cn2cc(-c3cnc4ccc(Oc5ccc6nc(C)[nH]c6c5)c(Cl)c4n3)cn2)CC1 [Compound 25] | < 20 | 20 to 100 | 100 to 400 | < 20
3 | Cc1nc2ccc(Oc3ccc4ncc(-c5cnn(CC#N)c5)nc4c3Cl)cc2[nH]1 [Compound 6] | 20 to 100 | 100 to 400 | ≥ 400 | 20 to 100
4 | Cc1nc2ccc(Oc3ccc4ncc(-c5cnn(CC6CCN(C)CC6)c5C)nc4c3Cl)cc2[nH]1 [Compound 31] | 20 to 100 | 20 to 100 | 100 to 400 | 20 to 100
5 | Cc1nc2c(C#N)cc(Oc3ccc4ncc(-c5cnn(CC6CCN(C)CC6)c5)nc4c3Cl)cc2[nH]1 [Compound 41] | 100 to 400 | 100 to 400 | ≥ 400 | 100 to 400
6 | Cc1nc2ccc(Oc3ccc4ncc(-c5cnn(CC6CCN(C)C(C)(C)C6)c5)nc4c3Cl)cc2[nH]1 (stereo not shown) [Compound 3] | 20 to 100 | 20 to 100 | 100 to 400 | 20 to 100
7 | Cc1nc2ccc(Oc3ccc4ncc(-c5cnn(CC6COC6)c5)nc4c3Cl)cc2[nH]1 [Compound 17] | ≥ 400 | ≥ 400 | ≥ 400 | ≥ 400
8 | Cc1nc2ccc(Oc3ccc4ncc(-c5cnn(CC6CCN(C)C(=O)C6)c5)nc4c3Cl)cc2[nH]1 (stereo not shown) [Compound 20] | 20 to 100 | 20 to 100 | ≥ 400 | 20 to 100
9 | Cc1nc2ccc(Oc3cc4nc(-c5cnn(CC6CCN(C)CC6)c5)cnc4cc3F)cc2[nH]1 [Compound 49] | ≥ 400 | ≥ 400 | ≥ 400 | ≥ 400
10 | Cc1ccc2ccc(Oc3ccc4ncc(-c5cnn(CC6CCN(C)CC6)c5)nc4c3Cl)cc2n1 [Compound 65] | ≥ 400 | ≥ 400 | ≥ 400 | ≥ 400
11 | Cc1nc2ccc(Oc3ccc4ncc(-c5cnn(C6CCN(C)C6)c5)nc4c3Cl)cc2[nH]1 (stereo not shown) [Compound 26] | < 20 | 20 to 100 | 100 to 400 | < 20
12 | Cc1nc2ccc(Oc3ccc4ncc(-c5cnn(CC6CCN(C)CC6)c5)nc4c3F)cc2[nH]1 [Compound 36] | 100 to 400 | 100 to 400 | ≥ 400 | 100 to 400
13 | Cc1nc2ccc(Oc3ccc4ncc(-c5cn(CC6CCN(C)CC6)nc5C)nc4c3Cl)cc2[nH]1 [Compound 32] | 20 to 100 | 20 to 100 | ≥ 400 | 20 to 100
14 | Cc1nc2ccc(Oc3ccc4ncc(-c5cnn(CC6CCN(S(C)(=O)=O)CC6)c5)nc4c3Cl)cc2n1S(C)(=O)=O [Compound 33] | 20 to 100 | 100 to 400 | ≥ 400 | 20 to 100
15 | Cc1nc2ccc(Oc3ccc4ncc(-c5cnn(CC6CCN(C(C)C)CC6)c5)nc4c3Cl)cc2[nH]1 [Compound 24] | < 20 | < 20 | 100 to 400 | < 20
16 | C=CC(=O)N1CCC(CCn2cc(-c3cnc4ccc(Oc5ccc6nc(C)[nH]c6c5)c(Cl)c4n3)cn2)CC1 [Compound 39] | 20 to 100 | 20 to 100 | 100 to 400 | 20 to 100

Row | SMILES | IC50 [1] [nM] | IC50 [2] [nM] | IC50 [3] [nM] | IC50 [4] [nM]
17 | Cc1nc2ccc(Oc3ccc4ncc(-c5cnn(CC6CCN(C)CC6)c5)nc4c3Cl)cc2[nH]1 [Compound 14] | < 20 | < 20 | 100 to 400 | < 20
18 | Cc1nc2ccc(Oc3ccc4ncc(-c5cnn(CC6CCN(C)C6)c5)nc4c3Cl)cc2[nH]1 (stereo not shown) [Compound 4] | 20 to 100 | 20 to 100 | 100 to 400 | 20 to 100
19 | Cc1nc2ccc(Oc3ccc4ncc(-c5cnn(CC6CCC(F)(F)CC6)c5)nc4c3Cl)cc2[nH]1 [Compound 9] | 20 to 100 | 20 to 100 | ≥ 400 | 20 to 100
20 | Cc1nc2ccc(Oc3ccc4ncc(-c5cnn(C)c5)nc4c3Cl)cc2[nH]1 [Compound 19] | 20 to 100 | 100 to 400 | ≥ 400 | 100 to 400
21 | Cc1nc2ccc(Oc3ccc4ncc(-c5cnn(CC6CCN(C7COC7)CC6)c5)nc4c3Cl)cc2[nH]1 [Compound 35] | < 20 | 20 to 100 | ≥ 400 | < 20
22 | Cc1nc2ccc(Oc3ccc4ncc(-c5cnn(C6CCNC6)c5)nc4c3Cl)cc2[nH]1 (stereo not shown) [Compound 27] | 20 to 100 | 20 to 100 | ≥ 400 | 100 to 400
23 | COC(=O)CS(=O)(=O)N1CCC(Cn2cc(-c3cnc4ccc(Oc5ccc6nc(C)[nH]c6c5)c(Cl)c4n3)cn2)CC1 [Compound 29] | 100 to 400 | ≥ 400 | ≥ 400 | ≥ 400
24 | Cc1nc2ccc(Oc3ccc4ncc(-c5cnn(C6CCCNC6)c5)nc4c3Cl)cc2[nH]1 (stereo not shown) [Compound 7] | 20 to 100 | 20 to 100 | 100 to 400 | 20 to 100
25 | COc1cc(Oc2ccc3ncc(-c4cnn(CC5CCOCC5)c4)nc3c2)cc2[nH]c(C)nc12 [Compound 61] | ≥ 400 | ≥ 400 | ≥ 400 | ≥ 400
26 | COc1cc(Oc2ccc3ncc(-c4cnn(CC5CCN(C)CC5)c4)nc3c2Cl)cc2[nH]c(C)nc12 [Compound 46] | 100 to 400 | ≥ 400 | ≥ 400 | 100 to 400
27 | Cc1nc2ccc(Oc3ccc4ncc(-c5cnn(CC6CCNC6)c5)nc4c3Cl)cc2[nH]1 (stereo not shown) [Compound 10] | 20 to 100 | 100 to 400 | ≥ 400 | 20 to 100
28 | Cc1nc2ccc(Oc3ccc4ncc(-c5cnn(CC6CCN(S(=O)(=O)CCO)CC6)c5)nc4c3Cl)cc2[nH]1 [Compound 13] | 20 to 100 | 20 to 100 | ≥ 400 | 20 to 100
29 | C=CC(=O)N1CCC(Cn2cc(-c3cnc4ccc(Oc5ccc6nc(C)[nH]c6c5)c(Cl)c4n3)cn2)CC1 [Compound 38] | < 20 | 20 to 100 | 100 to 400 | 20 to 100
30 | COCCN1CCC(Cn2cc(-c3cnc4ccc(Oc5ccc6nc(C)[nH]c6c5)c(Cl)c4n3)cn2)CC1 [Compound 30] | < 20 | < 20 | 100 to 400 | < 20
31 | Cc1nc2cc(Oc3ccc4ncc(-c5cnn(CC6CCOCC6)c5)nc4c3)ccc2[nH]1 [Compound 62] | 20 to 100 | 100 to 400 | ≥ 400 | 20 to 100
